Patent publication US10231453B2, “5-substituted imidazole derivatives” (BAYER CROPSCIENCE AKTIENGESELLSCHAFT, priority 2015, dated 2019)

Experiments:
[1] = Measurement of LogP values by HPLC on reversed phase columns (EEC directive 79/831 Annex V.A8); type: physicochemical; conditions: method [a]: LC-UV, acidic range, 0.1% formic acid in water and acetonitrile as eluent; Table 1
Procedure: Measurement of Log P values was performed as outlined above.

[2] = system: Botrytis cinerea; test: In vivo preventive test on Botrytis cinerea (grey mould) on gherkin, Examples B, Q1 and R2; conditions: Botrytis cinerea, 500 ppm of active ingredient, preventive spray, evaluated 4 to 5 days after inoculation, read-out: efficacy
[3] = system: Puccinia recondita; test: In vivo preventive test on Puccinia recondita (brown rust on wheat), Examples C and R3; conditions: Puccinia recondita, 264 h; 500 ppm of active ingredient; wheat, preventive spray, evaluated 11 days after inoculation; read-out: efficacy
[4] = system: Pyrenophora teres; test: In vivo preventive test on Pyrenophora teres (net blotch on barley), Examples D, Q2 and R4; conditions: Pyrenophora teres, 336 h, 500 ppm of active ingredient, preventive spray, evaluated 14 days after inoculation, read-out: efficacy
[5] = system: Septoria tritici; test: In vivo preventive test on Septoria tritici (leaf spot on wheat), Examples E, Q3 and R5; conditions: Zymoseptoria tritici, 576 h, 500 ppm of active ingredient; wheat, preventive spray, evaluated 24 days after inoculation; read-out: efficacy
[6] = system: Sphaerotheca fuliginea; test: In vivo preventive test on Sphaerotheca fuliginea (powdery mildew on cucurbits), Examples F and R6; conditions: Podosphaera fuliginea, 360 h; 500 ppm of active ingredient; gherkin, preventive spray, evaluated 15 days after inoculation; read-out: efficacy
[7] = system: Uromyces appendiculatus; test: In vivo preventive test on Uromyces appendiculatus (bean rust), Examples G and R7; conditions: 264 h, 500 ppm of active ingredient, bean, preventive spray, evaluated 11 days after inoculation, read-out: efficacy
[8] = system: Alternaria solani; test: In vivo preventive Alternaria test (tomatoes), Example H; conditions: 72 h, 100 ppm of active ingredient, preventive spray, evaluated 3 days after inoculation, read-out: efficacy
[9] = system: Phakopsora pachyrhizi; test: In vivo preventive Phakopsora test (soybeans), Example I; conditions: 168 h, 100 ppm of active ingredient, preventive spray, evaluated 7 days after inoculation, read-out: efficacy
[10] = system: Blumeria graminis fsp. hordei; test: In vivo preventive Blumeria test (barley), Example K; conditions: 168 h, 500 ppm of active ingredient, preventive spray, evaluated 7 days after inoculation, read-out: efficacy
Excerpt: After the spray coating has been dried, the plants are dusted with spores of Blumeria graminis fsp. hordei.

[11] = system: Fusarium culmorum; test: In vivo preventive Fusarium culmorum test (wheat), Example L; conditions: 120 h, 500 ppm of active ingredient, preventive spray, evaluated 5 days after inoculation, read-out: efficacy
Procedure: After the spray coating has been dried, the plants are slightly injured by using a sandblast and afterwards they are sprayed with a conidia suspension of Fusarium culmorum.
The test is evaluated 5 days after the inoculation.

[12] = system: Fusarium graminearum; test: whole plant or invertebrate; type: in vivo; conditions: in Hordeum vulgare, 120 h, read-out: efficacy
[13] = system: Leptosphaeria nodorum; test: In vivo preventive Leptosphaeria nodorum test (wheat), Example N; conditions: Parastagonospora nodorum, 192 h, 500 ppm of active ingredient, preventive spray, evaluated 8 days after inoculation, read-out: efficacy
Excerpt: After the spray coating has been dried, the plants are sprayed with a spore suspension of Leptosphaeria nodorum.

[14] = system: Fusarium nivale (var. majus); test: In vivo preventive Fusarium nivale (var. majus) test (wheat), Example O; conditions: Microdochium nivale, 120 h, 500 ppm of active ingredient, preventive spray, evaluated 5 days after inoculation, read-out: efficacy
Excerpt: After the spray coating has been dried, the plants are slightly injured by using a sandblast and afterwards they are sprayed with a conidia suspension of Fusarium nivale (var. majus).

[15] = system: Pyricularia oryzae; test: whole plant or invertebrate; type: in vivo; conditions: 192 h, read-out: efficacy
[16] = system: Venturia inaequalis; test: In vivo preventive Venturia test (apples), Example J; conditions: 240 h, read-out: efficacy
Procedure: After the spray coating has dried on, the plants are inoculated with an aqueous conidia suspension of the causal agent of apple scab (Venturia inaequalis) and then remain for 1 day in an incubation cabinet at approximately 20° C. and a relative atmospheric humidity of 100%.
The plants are then placed in a greenhouse at approximately 21° C. and a relative atmospheric humidity of approximately 90%.
The test is evaluated 10 days after the inoculation.

| SMILES | chromatographic logP [1] | pest or weed control at 500 ppm [2] [%] | pest or weed control at 500 ppm [3] [%] | pest or weed control at 500 ppm [4] [%] | pest or weed control at 500 ppm [5] [%] | pest or weed control at 500 ppm [6] [%] | pest or weed control at 500 ppm [7] [%] | pest or weed control at 100 ppm [8] [%] | pest or weed control at 100 ppm [9] [%] | pest or weed control at 500 ppm [10] [%] | pest or weed control at 500 ppm [11] [%] | pest or weed control at 500 ppm [12] [%] | pest or weed control at 500 ppm [13] [%] | pest or weed control at 500 ppm [14] [%] | pest or weed control at 500 ppm [15] [%] | pest or weed control at 100 ppm [16] [%] |
| --- | --- | --- | --- | --- | --- | --- | --- | --- | --- | --- | --- | --- | --- | --- | --- | --- |
| OC(Cc1ccccc1)(Cn1cncc1Cl)C1(Cl)CC1 (centres unmarked) [Example I-39] | 2.04 | 90 to 100 | 90 to 100 | 90 to 100 | 90 to 100 | 90 to 100 | 90 to 100 | 90 to 100 | 90 to 100 | 90 to 100 | 90 to 100 | 90 to 100 | 70 to 79 | 70 to 79 | 70 to 79 | – |
| N#Cc1cncn1CC(O)(Cc1ccccc1)C1(Cl)CC1 (centres unmarked) [Example I-65] | 2.64 | 90 to 100 | 90 to 100 | 90 to 100 | 80 to 89 | 90 to 100 | 90 to 100 | 90 to 100 | 90 to 100 | 90 to 100 | 90 to 100 | 90 to 100 | 80 to 89 | 90 to 100 | 90 to 100 | 80 to 89 |
| N#Cc1cncn1CC(O)(Cc1cccc(F)c1F)C1(F)CC1 (centres unmarked) [Example I-95] | 2.37 | – | 90 to 100 | 80 to 89 | 90 to 100 | 90 to 100 | 90 to 100 | 90 to 100 | 90 to 100 | 90 to 100 | 90 to 100 | 90 to 100 | 80 to 89 | 90 to 100 | 70 to 79 | 80 to 89 |
| N#Cc1cncn1CC(O)(Cc1ccc(F)cc1)C1(Cl)CC1 (centres unmarked) [Example I-157] | 2.75 | 90 to 100 | 90 to 100 | 90 to 100 | 90 to 100 | 90 to 100 | 90 to 100 | 80 to 89 | 90 to 100 | 90 to 100 | 90 to 100 | 90 to 100 | 80 to 89 | 80 to 89 | 90 to 100 | 90 to 100 |
